{"source": "patent US20050058614A1", "about": "“Methods for the treatment of gray hair using cyclopentane(ene) heptan(en)oic acid amides” (Allergan, Inc., priority 2003, published 2005)", "key": {"gray hair": {"tested_on": "gray hair", "test": "conversion of gray hair to original pigment on oral bimatoprost in human subjects", "type": "in vivo", "text": "A patient began taking bimatoprost as a tablet. […] A healthy person with normal blood pressure volunteers to take the medicine for the same observation as in Example 2 at the dose described above. Their hair condition is normal with no baldness. During the six month testing period, they collect in intervals the hair samples from regular daily combing. Before the testing and during the first month of testing, the hair samples collected have two types, namely completely dark brown or completely gray. At around 50 days into the testing period, a new type of hair, partly dark brown and partly gray, begins to appear in the hair samples; they represent about 3% of the gray hairs. In this subject, the gray hairs represent about 25% of their total hairs in the samples collected. It is noted that the dark brown part of the new type of hair is always associated with the lower part of the hair shaft. This is easily identifiable because the hair follicles are distinguishable at one end of hair shafts. The quality and thickness of the new type of hair is very similar to the other types of hairs of this subject. The ratio of length of the dark brown part to that of the gray part of the new type of hair varies from 1:5 to 4:1 in the samples collected during the five-month period. This varying ratio may reflect the stages of the growth cycle of each hair follicle examined. The observation was discontinued at the end of five months."}, "[1]": {"test": "untoward effects during the observation period", "type": "in vivo, human", "settings": "healthy person, oral, same dose as Example 1", "text": "(§1) A healthy subject with normal blood pressure volunteers to take the medicine for observation on hair growth promoting activity at the same dose reported in Example 1. Before taking the medicine they have few hairs left in the frontoparietal area of the head. Three months after taking the medicine, they begin to note an increase of hair density in the affected area. […] The response to the medicine is more sensitive in areas with most recent hair loss. […] The observation is terminated at the end of six months.\nA healthy person with normal blood pressure volunteers to take the medicine for the same observation as in Example 2 at the dose described above. Their hair condition is normal with no baldness. During the six month testing period, they collect in intervals the hair samples from regular daily combing. Before the testing and during the first month of testing, the hair samples collected have two types, namely completely dark brown or completely gray. At around 50 days into the testing period, a new type of hair, partly dark brown and partly gray, begins to appear in the hair samples; they represent about 3% of the gray hairs. In this subject, the gray hairs represent about 25% of their total hairs in the samples collected. It is noted that the dark brown part of the new type of hair is always associated with the lower part of the hair shaft. […]"}, "[2]": {"tested_on": "hair in the frontoparietal area of the head", "test": "observation on hair growth promoting activity on oral bimatoprost", "type": "in vivo, human", "settings": "healthy person", "text": "as §1"}, "eyelashes": {"tested_on": "eyelashes", "settings": "Lumigan ophthalmic solution applied in the FDA approved manner; cited from earlier work"}}, "data": [{"smiles": "CCNC(=O)CCC/C=C\\C[C@@H]1[C@@H](/C=C/[C@@H](O)CCc2ccccc2)[C@H](O)C[C@@H]1O", "note": "[bimatoprost, cyclopentane N-ethyl heptanamide-5-cis-2-(3α-hydroxy-5-phenyl-1-trans-pentenyl)-3,5-dihydroxy, [1α,2β,3α,5α]]", "values": [{"measurement": "time until new type of hair, partly dark brown and partly gray, appears in hair samples", "setting": "gray hair; healthy person, no baldness, oral, same dose as Example 1, hair samples from daily combing", "value": "around 50 days"}, {"measurement": "new type of hair (partly dark brown, partly gray) as share of the gray hairs", "setting": "gray hair; healthy person, oral, same dose as Example 1, gray hairs about 25% of total hairs", "value": "about 3%"}, {"measurement": "gray hairs turned into the original pigment", "setting": "gray hair; patient, oral tablet 2 x 100 mg per dose, 3 doses per day, four months", "value": "a significant portion of their gray hairs had gradually turned into the original pigment or dark brown color"}, {"measurement": "untoward effects", "setting": "[1]; observation discontinued at five months", "value": "No untoward effects were reported"}, {"measurement": "untoward effects", "setting": "[1]; six months observation", "value": "does not experience any untoward effects"}, {"measurement": "time until increase of hair density in the affected area is noted", "setting": "[2]; few hairs in frontoparietal area, same dose as Example 1", "value": "Three"}, {"measurement": "colour of the newly grown hairs in the affected area", "setting": "[2]; same dose as Example 1", "value": "mostly dark brown"}, {"measurement": "overall increase of the hair density in the affected area", "setting": "[2]; same dose as Example 1, six months", "value": "very significant"}, {"measurement": "hair cut frequency", "setting": "[2]; same dose as Example 1, three to six months of the testing period", "value": "increase the hair cut frequency to once a month from once every two months"}, {"measurement": "growth of eyelashes", "setting": "eyelashes", "value": "effective to increase the growth of eyelashes"}]}]}
